Assay results reported in patent US4200575A, “7[(2-Thiazolyl)-2-(oxoimino)acetamido]cephalosporin derivatives” (Takeda Chemical Industries, Ltd., priority 1977, dated 1980).

What was measured:
P. rettgeri TN 338 = experiment: Minimal inhibitory concentration (M.I.C.), agar dilution method; type: cell-based, Proteus rettgeri; conditions: TSA, inoculum 10^7 /ml
From the text: (§1) (a) Determination of minimal inhibitory concentrations (Tables 1 to 8):
(§2) Procedure: agar dilution method

P. rettgeri GN4733 = experiment: as above; type: cell-based, Proteus rettgeri; conditions: TSA, inoculum 10^7 /ml
From the text: as §1, §2

E. coli NIHJ JC-2 = experiment: as above; type: cell-based, Escherichia coli; conditions: TSA, inoculum 10^7 /ml
From the text: as §1, §2

E. coli T-7 = experiment: as above; type: cell-based, Escherichia coli; conditions: TSA, inoculum 10^7 /ml
From the text: as §1, §2

P. mirabilis GN 4359 = experiment: as above; type: cell-based, Proteus mirabilis; conditions: TSA, inoculum 10^7 /ml
From the text: as §1, §2

C. freundii GN 99 = experiment: as above; type: cell-based, Citrobacter freundii; conditions: TSA, inoculum 10^7 /ml
From the text: as §1, §2

C. freundii GN 1706 = experiment: as above; type: cell-based, Citrobacter freundii; conditions: TSA, inoculum 10^7 /ml
From the text: as §1, §2

E. coli 0-111 = experiment: as above; type: cell-based, Escherichia coli; conditions: TSA, inoculum 10^7 /ml
How it was run: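 MIC against E. coli O-111 was determined by agar dilution.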

S. aureus 1840 = experiment: as above; type: cell-based, Staphylococcus aureus; conditions: TSA, inoculum 10^7 /ml
From the text: as §1, §2

S. aureus 209P = experiment: as above; type: cell-based, Staphylococcus aureus; conditions: TSA, inoculum 10^7 /ml
From the text: as §1, §2

E. cloacae TN 1282 = experiment: as above; type: cell-based, Enterobacter cloacae; conditions: TSA, inoculum 10^7 /ml
From the text: as §1, §2

S. marcescens TN 24 = experiment: as above; type: cell-based, Serratia marcescens; conditions: TSA, inoculum 10^7 /ml
From the text: as §1, §2

S. marcescens IFO 12648 = experiment: as above; type: cell-based, Serratia marcescens; conditions: TSA, inoculum 10^7 /ml
From the text: as §1, §2

P. morganii IFO 3168 = experiment: as above; type: cell-based, Proteus morganii; conditions: TSA, inoculum 10^7 /ml
From the text: as §1, §2

P. vulgaris GN 4413 = experiment: as above; type: cell-based, Proteus vulgaris; conditions: TSA, inoculum 10^7 /ml
From the text: as §1, §2

P. vulgaris IFO 3988 = experiment: as above; type: cell-based, Proteus vulgaris; conditions: TSA, inoculum 10^7 /ml
From the text: as §1, §2

K. pneumoniae GN 3835 = experiment: as above; type: cell-based, Klebsiella pneumoniae; conditions: TSA, inoculum 10^7 /ml
From the text: as §1, §2

K. pneumoniae DT = experiment: as above; type: cell-based, Klebsiella pneumoniae; conditions: TSA, inoculum 10^7 /ml
From the text: as §1, §2

Escherichia coli 0-111 = experiment: Therapeutic effects in infected mice; type: in vivo, Male mice ICR/SLC; conditions: Escherichia coli, 0111, sc, 168 h
Procedure: The preliminary therapeutic effects of some cephalosporin derivatives of this invention as determined in infected mice were as follows.
Determination of therapeutic effects in infected mice
Test animals: Male mice ICR/SLC
Each compound was administered to a group of 5 animals.
Route of infection: Intraperitoneally infected with Escherichia coli 0-111
Period of observation: 7 days.
Method of administration:
One mg of each test compound was dissolved in 100 ml of sterile physiological saline and a dilution series of the same solution was prepared. These solutions were respectively injected subcutaneously into mice immediately after infection, in a single dose of 0.2 ml each.

Compound	minimal inhibitory concentration (M.I.C.) (P. rettgeri TN 338)	minimal inhibitory concentration (M.I.C.) (P. rettgeri GN4733)	minimal inhibitory concentration (M.I.C.) (E. coli NIHJ JC-2)	minimal inhibitory concentration (M.I.C.) (E. coli T-7)	minimal inhibitory concentration (M.I.C.) (P. mirabilis GN 4359)	minimal inhibitory concentration (M.I.C.) (C. freundii GN 99)	minimal inhibitory concentration (M.I.C.) (C. freundii GN 1706)	minimal inhibitory concentration (M.I.C.) (E. coli 0-111)	minimal inhibitory concentration (M.I.C.) (S. aureus 1840)	minimal inhibitory concentration (M.I.C.) (S. aureus 209P)	minimal inhibitory concentration (M.I.C.) (E. cloacae TN 1282)	minimal inhibitory concentration (M.I.C.) (S. marcescens TN 24)	minimal inhibitory concentration (M.I.C.) (S. marcescens IFO 12648)	minimal inhibitory concentration (M.I.C.) (P. morganii IFO 3168)	minimal inhibitory concentration (M.I.C.) (P. vulgaris GN 4413)	minimal inhibitory concentration (M.I.C.) (P. vulgaris IFO 3988)	minimal inhibitory concentration (M.I.C.) (K. pneumoniae GN 3835)	minimal inhibitory concentration (M.I.C.) (K. pneumoniae DT)	ED50 (Escherichia coli 0-111) [mg/kg]
CNC(=O)O/N=C(\C(=O)NC1C(=O)N2C(C(=O)O)=C(COC(N)=O)CSC12)c1csc(=N)[nH]1 (stereo not drawn) [Example II - 3, sodium 7-[2-(2-imino-4-thiazolin-4-yl)-2-methylcarbamoyloximinoacetamido]-3-carbamoyloxymethyl-3-cephem-4-carboxylate (syn-isomer)]	≤ 0.012	0.1	0.1	0.39	0.05	0.1	0.2	0.024	3.13	3.13	6.25	6.25	3.13	0.78	50	0.05	0.1	0.024	0.016
CNC(=O)O/N=C(\C(=O)NC1C(=O)N2C(C(=O)O)=C(CSc3nnnn3C)CSC12)c1csc(=N)[nH]1 (stereo not drawn) [Example II - 4, sodium 7-[2-(2-imino-4-thiazolin-4-yl)-2-methylcarbamoyloximinoacetamido]-3-(1-methyl-1H-tetrazol-5-yl)thiomethyl-3-cephem-4-carboxylate (syn-isomer)]	≤ 0.012	0.1	0.2	1.56	0.1	0.1	0.39	0.024	1.56	1.56	1.56	0.78	1.56	0.1	12.5	0.1	0.39	0.05	0.025
CCCCNC(=O)O/N=C(\C(=O)NC1C(=O)N2C(C(=O)O)=C(COC(N)=O)CSC12)c1csc(=N)[nH]1 (stereo not drawn) [Example II - 21, sodium 7-[2-(2-imino-4-thiazolin-4-yl)-2-butylcarbamoyloximinoacetamido]-3-carbamoyloxymethyl-3-cephem-4-carboxylate (syn-isomer)]	≤ 0.012	0.39	0.39	3.13	0.2	0.39	0.78	0.05	3.13	1.56	25	25	6.25	1.56	50	0.39	0.39	0.1	0.1
O=C(Cc1cccs1)N[C@@H]1C(=O)N2C(C(=O)[O-])=C(C[n+]3ccccc3)CS[C@H]12 [Cephaloridine, 7-(2-thienylacetamido)-3-(1-pyridyl)methyl-3-cephem-4-carboxylic acid betaine, reference compound]	1.56	> 100	3.13	> 100	6.25	50	> 100	1.56	0.39	0.05	> 100	> 100	> 100	> 100	> 100	6.25	12.5	1.56	2
